# Legend:
# [1] = clinical data; cited from earlier work
# human monocytes = experiment: RNAseq gene expression in purified human monocytes treated with ITF3756 and/or TNF-α; type: cell-based
# Description: PBMCs used for the experiments were obtained from Buffy Coats of healthy donors (all samples tested negative for transmissible diseases as required for blood transfusion) separated over a Ficoll-Hypaque gradient (Biochrom). Monocytes were purified by negative selection from 100×10^6 PBMC using Pan Monocytes Isolation Kit (Milteny) following manufacturer's instructions. By Pan Monocyte Isolation kit untouched monocytes are isolated from human PBMCs and the simultaneous enrichment of classical (CD14^++CD16^−), non classical (CD14^+CD16^++) and intermediate (CD14^++CD16^+) monocytes is achieved. Non-monocytes, such as T cells, NK cells, B cells, dendritic cells, and basophils are indirectly magnetically labeled using a cocktail of biotin-conjugated antibodies and anti-Biotin MicroBeads. Briefly, 400 μL of Buffer (PBS 1×, 0.5% BSA and 2 mM EDTA), 100 μL of FcR Blocking Reagent and 100 μL of Biotin-Antibody Cocktail were added to PBMC, previously washed with PBS by centrifugation 300×g for 5 minutes, mixed and incubate for 5 minutes in the refrigerator (2-8° C.). After incubation, 300 μL of Buffer and 200 μL of anti-biotin microbeads were added to the cells, mixed and incubate further for 10 minutes in the refrigerator. After incubation cells were processed by subsequent magnetic cell separation. Cell suspension was applied onto the column and the flow-through containing unlabeled cells, representing the enriched monocytes, was collected. Purified monocytes were washed with Buffer by centrifugation 300×g for 5 minutes and counted in PBS. Purified monocytes (1,0×10^6/ml) were pre-treated for 2 h with ITF3756 1 μM or DMSO (0.005%) in 12-well plates in 1 ml final volume of complete medium (RPMI (Biochrom), FCS 10% and penicillin/streptomycin 1× (Sigma)). The cells were then stimulated or not with TNF-α (100 ng/mL, Peprotech) for 4h. After incubation with ITF3756 and TNF-α, the cells were collected, washed with PBS by centrifugation 300×g for 5 minutes and stored at −80° C. Samples were thawed on the bench for 2 minutes and total RNA was extracted with Trizol reagent (Thermo Fisher Scientific), following manufacturer's instructions. Briefly, Trizol reagent (0.75 ml Trizol per 5-10×10^6 cells) was added to the samples and the samples were incubated at room temperature (RT) for 5 minutes. After incubation, chloroform (150 μL per 0.75 mL Trizol) was added to the samples and after 3 minutes of incubation at RT, samples were centrifuged for 12000×g for 14 minutes at 4° C. After centrifugation, the mixture separates into 3 phases and RNA remains in the aqueous phase. The aqueous phase was removed for each sample and placed in new tubes, and isopropanol (0,375 ml per 0.75 ml of Trizol) was added in each tube. Samples was incubated for 30 minutes in the refrigerator (2-8° C.). After incubation, samples were centrifugated for 12000×g for 10 minutes at 4° C., the supernatant was removed and 75% ethanol (0.75 ml per 0.75 ml of Trizol) was added to samples. Samples were centrifuged for 7500×g for 5 minutes at 4° C., and the supernatant discarded. RNA was air dried on the bench for 5-10 minutes. RNA Samples was then resuspended in water (10-50 μL). The scheme of the experimental procedures carried out to generate the RNA sequence data is represented in FIG. 1. To determine the quantity and the integrity/purity of RNA samples, check controls were first performed by the Agilent Technologies 2100 Bioanalyzer using RNA 6000 LabChip® kit (Agilent #5067-1511). The Bioanalyzer is a bio-analytical device based on a combination of microfluidic chips, voltage-induced size separation in gel filled channels and laser-induced fluorescence (LIF) detection on a miniaturized scale. The RNA Integrity Number (RIN) software algorithm allows the classification of total RNA, based on a numbering system from 1 to 10, (with 1 being the most degraded and 10 being the most intact). […] Purified samples were processed using TruSeq RNA-Seq v2 Library Preparation Kit. […]
# [2] = single treatment (ITF3756 1 μM or TNF-α 100 ng/mL), RNAseq, vs control
# [3] = single treatment vs vehicle-treated control (don), monocytes 4 h, padj<0.05
Compound,tolerability in patients [1],ADA gene expression (human monocytes; [2]),IRF6 gene expression (human monocytes; [2]),LTBP4 gene expression (human monocytes; [2]),"MMP9 gene expression (human monocytes; single treatment (ITF3756 1 μM or TNF-α 100 ng/mL), RNAseq, vs untreated control)","PD-L1 gene expression (human monocytes; single treatment (TNF-α 100 ng/mL 4 h), vs control)",Genes Down regulated (number of genes modulated) (human monocytes; [3]),Genes Up regulated (number of genes modulated) (human monocytes; [3])
O=C(NO)c1ccc(CN(c2cnccn2)c2cnccn2)cc1 [KA2507],very well tolerated,–,–,–,–,–,–,–
O=C(CCCCCCNC(=O)c1cnc(N(c2ccccc2)c2ccccc2)nc1)NO [Ricolinostat],very well tolerated,–,–,–,–,–,–,–
TNF-α [reference compound],–,upregulation,no effect,downregulated by two fold,No modulation,strongly upregulated,1688,1563
